The values that follow come from patent US7919529B2, “δ-amino-γ-hydroxy-ω-aryl-alkanoic acid amides” (Novartis AG, priority 2003, dated 2011).

In this assay the target is T1, Recombinant human renin (Homo sapiens, UniProt P00797).
T1 construct: made in house; host or cells: Chinese Hamster Ovary cells
T1 sequence (P00797 67-406): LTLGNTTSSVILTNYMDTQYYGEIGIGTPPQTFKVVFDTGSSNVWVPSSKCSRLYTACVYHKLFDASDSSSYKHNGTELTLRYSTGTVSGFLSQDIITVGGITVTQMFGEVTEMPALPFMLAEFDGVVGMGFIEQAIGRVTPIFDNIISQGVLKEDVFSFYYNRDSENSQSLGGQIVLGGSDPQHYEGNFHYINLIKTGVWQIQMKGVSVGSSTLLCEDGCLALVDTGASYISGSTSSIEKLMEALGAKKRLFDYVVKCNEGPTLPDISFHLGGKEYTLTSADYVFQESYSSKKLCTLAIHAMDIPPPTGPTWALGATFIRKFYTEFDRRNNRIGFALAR
Nature of the assay: FRET assay of renin inhibition. It counts as biochemical. The method, then: Recombinant human renin (expressed in Chinese Hamster Ovary cells and purified using standard methods) at 4 nM concentration is incubated with test compound at various concentrations for 1 h at RT in 0.1 M Tris-HCl buffer, pH 7.4, containing 0.05 M NaCl, 0.5 mM EDTA and 0.05% CHAPS. Synthetic peptide substrate Arg-Glu(EDANS)-Ile-His-Pro-Phe-His-Leu-Val-Ile_His_Thr-Lys(DABCYL)-Arg9 is added to a final concentration of 2 μM and increase in fluorescence is recorded at an excitation wave-length of 340 nm and at an emission wave-length of 485 nm in a microplate spectro-fluorimeter. IC50 values are calculated from percentage of inhibition of renin activity as a function of test compound concentration (Fluorescence Resonance Energy Transfer, FRET, assay).

For the molecule `COCCCOc1cc(C[C@@H](C[C@H](N)[C@@H](O)C[C@H](C(=O)N[C@@H](C)C2CCCCC2)C(C)C)C(C)C)ccc1OC` [Example 29, (2S,4S,5S,7S)-5-Amino-4-hydroxy-2-isopropyl-7-[4-methoxy-3-(3-methoxy-propoxy)-benzyl]-8-methyl-nonanoic acid ((S)-1-cyclohexyl-ethyl)-amide], the IC50 (as a rule, the concentration needed to halve the response being measured) is roughly 0.3 nM.
